In US11957696B2 (Propella Therapeutics, Inc., priority 2021, dated 2024):

Test system: CYP17 hydroxylase/lyase
Assay: Steroid hormone analysis (serum) in 13-week study
Assay type: in vivo, cynomolgus monkeys
Conditions: for Serum 17OH-Progesterone CFB (vs Day −1) / Serum 17OH-Progesterone Mean / Serum Aldosterone CFB (vs Day −1) / Serum Aldosterone Mean / Serum Androstenedione CFB (vs Day −1) / Serum Androstenedione Mean / Serum Corticosterone CFB (vs Day −1) / Serum Corticosterone Mean / Serum Cortisol CFB (vs Day −1) / Serum Cortisol Mean / Serum Dehydroepiandrosterone CFB (vs Day −1) / Serum Dehydroepiandrosterone Mean / Serum Deoxycortisol CFB (vs Day −1) / Serum Deoxycortisol Mean / Serum Dihydrotestosterone CFB (vs Day −1) / Serum Dihydrotestosterone Mean / Serum Progesterone CFB (vs Day −1) / Serum Progesterone Mean / Serum Testosterone CFB (vs Day −1) / Serum Testosterone Mean: intact male monkeys
Protocol: Sample Collection for Steroid Hormone Analysis (Serum): Blood samples (approximately 2.5 mL) were collected from all animals via the femoral vein for the steroid hormone analysis. The animals were fasted prior to blood collection.

[1] = 20 mg/kg IM every two weeks, Day 15
[2] = 20 mg/kg IM every two weeks, Day 85
[3] = 60 mg/kg IM every two weeks, Day 15
[4] = 60 mg/kg IM every two weeks, Day 85
[5] = 200 mg/kg IM every two weeks, Day 15
[6] = 200 mg/kg IM every two weeks, Day 85
[7] = Day 85, 20 and 60 mg/kg dose groups

## CCCCCCCCCC(=O)O[C@H]1CC[C@@]2(C)C(=CC[C@@H]3[C@@H]2CC[C@]2(C)C(c4cccnc4)=CC[C@@H]32)C1 [Abiraterone Decanoate, abiraterone decanoate]
[1]
  Serum 17OH-Progesterone CFB (vs Day −1): 1060%
  Serum 17OH-Progesterone Mean: 4289 pg/mL
  Serum Aldosterone CFB (vs Day −1): −68%
  Serum Aldosterone Mean: 45 pg/mL
  Serum Androstenedione CFB (vs Day −1): −82%
  Serum Androstenedione Mean: 39 pg/mL
  Serum Corticosterone CFB (vs Day −1): 3361%
  Serum Corticosterone Mean: 110635 pg/mL
  Serum Cortisol CFB (vs Day −1): −76%
  Serum Cortisol Mean: 34897 pg/mL
  Serum Dehydroepiandrosterone CFB (vs Day −1): −73%
  Serum Dehydroepiandrosterone Mean: 1500 pg/mL
  Serum Deoxycortisol CFB (vs Day −1): −64%
  Serum Deoxycortisol Mean: 241 pg/mL
  Serum Dihydrotestosterone CFB (vs Day −1): −87%
  Serum Dihydrotestosterone Mean: 195 pg/mL
  Serum Progesterone CFB (vs Day −1): 51539%
  Serum Progesterone Mean: 10328 pg/mL
  Serum Testosterone CFB (vs Day −1): −65%
  Serum Testosterone Mean: 2148 pg/mL
20 mg/kg IM every two weeks, Day 15, listed as AbiDec
  Serum Testosterone CFB (vs Day −1): −87%
[2]
  Serum 17OH-Progesterone CFB (vs Day −1): 1968%
  Serum 17OH-Progesterone Mean: 7647 pg/mL
  Serum Aldosterone CFB (vs Day −1): 40%
  Serum Aldosterone Mean: 199 pg/mL
  Serum Androstenedione CFB (vs Day −1): −53%
  Serum Androstenedione Mean: 106 pg/mL
  Serum Corticosterone CFB (vs Day −1): 2837%
  Serum Corticosterone Mean: 93869 pg/mL
  Serum Cortisol CFB (vs Day −1): −58%
  Serum Cortisol Mean: 62490 pg/mL
  Serum Dehydroepiandrosterone CFB (vs Day −1): −76%
  Serum Dehydroepiandrosterone Mean: 1372 pg/mL
  Serum Deoxycortisol CFB (vs Day −1): −47%
  Serum Deoxycortisol Mean: 357 pg/mL
  Serum Dihydrotestosterone CFB (vs Day −1): −61%
  Serum Dihydrotestosterone Mean: 578 pg/mL
  Serum Progesterone CFB (vs Day −1): 47710%
  Serum Progesterone Mean: 9562 pg/mL
  Serum Testosterone CFB (vs Day −1): 3%
  Serum Testosterone Mean: 6286 pg/mL
[3]
  Serum 17OH-Progesterone CFB (vs Day −1): 944%
  Serum 17OH-Progesterone Mean: 1631 pg/mL
  Serum Aldosterone CFB (vs Day −1): −94%
  Serum Aldosterone Mean: 14 pg/mL
  Serum Androstenedione CFB (vs Day −1): −94%
  Serum Androstenedione Mean: 20 pg/mL
  Serum Corticosterone CFB (vs Day −1): 5279%
  Serum Corticosterone Mean: 163079 pg/mL
  Serum Cortisol CFB (vs Day −1): −87%
  Serum Cortisol Mean: 18271 pg/mL
  Serum Dehydroepiandrosterone CFB (vs Day −1): −75%
  Serum Dehydroepiandrosterone Mean: 1271 pg/mL
  Serum Deoxycortisol CFB (vs Day −1): −72%
  Serum Deoxycortisol Mean: 93 pg/mL
  Serum Dihydrotestosterone CFB (vs Day −1): −95%
  Serum Dihydrotestosterone Mean: 64 pg/mL
  Serum Progesterone CFB (vs Day −1): 69193%
  Serum Progesterone Mean: 13859 pg/mL
  Serum Testosterone CFB (vs Day −1): −94%
  Serum Testosterone Mean: 335 pg/mL
60 mg/kg IM every two weeks, Day 15, listed as AbiDec
  Serum Testosterone CFB (vs Day −1): −95%
[4]
  Serum 17OH-Progesterone CFB (vs Day −1): 5546%
  Serum 17OH-Progesterone Mean: 8821 pg/mL
  Serum Aldosterone CFB (vs Day −1): −18%
  Serum Aldosterone Mean: 194 pg/mL
  Serum Androstenedione CFB (vs Day −1): −77%
  Serum Androstenedione Mean: 79 pg/mL
  Serum Corticosterone CFB (vs Day −1): 3878%
  Serum Corticosterone Mean: 120598 pg/mL
  Serum Cortisol CFB (vs Day −1): −72%
  Serum Cortisol Mean: 39689 pg/mL
  Serum Dehydroepiandrosterone CFB (vs Day −1): −76%
  Serum Dehydroepiandrosterone Mean: 1200 pg/mL
  Serum Deoxycortisol CFB (vs Day −1): −7%
  Serum Deoxycortisol Mean: 315 pg/mL
  Serum Dihydrotestosterone CFB (vs Day −1): −69%
  Serum Dihydrotestosterone Mean: 361 pg/mL
  Serum Progesterone CFB (vs Day −1): 67947%
  Serum Progesterone Mean: 13609 pg/mL
  Serum Testosterone CFB (vs Day −1): 1%
  Serum Testosterone Mean: 5453 pg/mL
[5]
  Serum 17OH-Progesterone CFB (vs Day −1): 158%
  Serum 17OH-Progesterone Mean: 474 pg/mL
  Serum Aldosterone CFB (vs Day −1): −91%
  Serum Aldosterone Mean: 19 pg/mL
  Serum Androstenedione CFB (vs Day −1): −93%
  Serum Androstenedione Mean: 20 pg/mL
  Serum Corticosterone CFB (vs Day −1): 4238%
  Serum Corticosterone Mean: 138133 pg/mL
  Serum Cortisol CFB (vs Day −1): −93%
  Serum Cortisol Mean: 7703 pg/mL
  Serum Dehydroepiandrosterone CFB (vs Day −1): −64%
  Serum Dehydroepiandrosterone Mean: 1200 pg/mL
  Serum Deoxycortisol CFB (vs Day −1): −84%
  Serum Deoxycortisol Mean: 44 pg/mL
  Serum Dihydrotestosterone CFB (vs Day −1): −96%
  Serum Dihydrotestosterone Mean: 67 pg/mL
  Serum Progesterone CFB (vs Day −1): 59894%
  Serum Progesterone Mean: 11999 pg/mL
  Serum Testosterone CFB (vs Day −1): −99%
  Serum Testosterone Mean: 100 pg/mL
200 mg/kg IM every two weeks, Day 15, listed as AbiDec
  Serum Testosterone CFB (vs Day −1): −96%
[6]
  Serum 17OH-Progesterone CFB (vs Day −1): 1696%
  Serum 17OH-Progesterone Mean: 3296 pg/mL
  Serum Aldosterone CFB (vs Day −1): −82%
  Serum Aldosterone Mean: 37 pg/mL
  Serum Androstenedione CFB (vs Day −1): −87%
  Serum Androstenedione Mean: 39 pg/mL
  Serum Corticosterone CFB (vs Day −1): 3468%
  Serum Corticosterone Mean: 113629 pg/mL
  Serum Cortisol CFB (vs Day −1): −83%
  Serum Cortisol Mean: 19682 pg/mL
  Serum Dehydroepiandrosterone CFB (vs Day −1): −64%
  Serum Dehydroepiandrosterone Mean: 1200 pg/mL
  Serum Deoxycortisol CFB (vs Day −1): −49%
  Serum Deoxycortisol Mean: 141 pg/mL
  Serum Dihydrotestosterone CFB (vs Day −1): −90%
  Serum Dihydrotestosterone Mean: 165 pg/mL
  Serum Progesterone CFB (vs Day −1): 75799%
  Serum Progesterone Mean: 15180 pg/mL
  Serum Testosterone CFB (vs Day −1): −87%
  Serum Testosterone Mean: 1246 pg/mL
200 mg/kg IM every two weeks, Day 85, listed as AbiDec
  Serum Testosterone CFB (vs Day −1): −87%
200 mg/kg/dose, for at least 85 days
  serum testosterone levels reduced: more than 75%
[7]
  Androstenedione serum concentration below Day −1: 53-77%
  dihydrotestosterone serum concentration below Day −1: 61-69%
Gonadally intact male monkeys, appeared dose dependent, sustained for testosterone through Day 85 at 200 mg/kg/dose
  circulating androgen levels: potent reductions in circulating androgen levels
Two lower dose groups (20, 60 mg/kg) by Day 85
  Serum testosterone concentrations following repeat administration: returned to baseline
